# Data taken from patent US11109593B2, “Isoxazolin-5-one derivative and herbicide containing same as active ingredient” (HOKKO CHEMICAL INDUSTRY CO., LTD., priority 2017, dated 2021).
# Test system: Echinochloa crus-galli
# Assay: Test Example 1: herbicidal effect test by treatment of rice paddy soil (immediately after seeding)
# Assay type: in vivo
# Conditions: 120 g/10a active ingredient, dry weight vs untreated area, 14 days after treatment
# In short: (§1)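 Application occurs immediately after seeding, with diluted emulsion added to paddy water (about 3 cm deep) over puddled, fertilized soil at 120 g active ingredient per 10 ares. Herbicidal rate is calculated from mean dry weight against untreated controls 14 days later.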
row,SMILES,Herbicidal rate (%) Echinochloa crus-galli [%]
1,CCC(C)CCn1oc(=O)c(Cc2ccccc2N(S(=O)(=O)C(F)(F)F)S(=O)(=O)C(F)(F)F)c1C (centres unmarked) [Compound 1-978],100
2,COCCOC(=O)N(c1ccccc1Cc1c(C)n(CCSC)oc1=O)S(=O)(=O)C(F)(F)F [Compound 1-735],90

# Test system: broad leaf weeds (Lindernia pyxidaria and Monochoria vaginalis)
# Assay: as above
# Assay type: in vivo
# Conditions: Lindernia pyxidaria, 120 g/10a active ingredient, dry weight vs untreated area, 14 days after treatment
# In short: as §1
row,SMILES,Herbicidal rate (%) Lindernia pyxidaria [%]
1,CCC(C)CCn1oc(=O)c(Cc2ccccc2N(S(=O)(=O)C(F)(F)F)S(=O)(=O)C(F)(F)F)c1C (centres unmarked) [Compound 1-978],90
2,COCCOC(=O)N(c1ccccc1Cc1c(C)n(CCSC)oc1=O)S(=O)(=O)C(F)(F)F [Compound 1-735],90

# Same assay, conditions: Monochoria vaginalis, 120 g/10a active ingredient, dry weight vs untreated area, 14 days after treatment
row,SMILES,Herbicidal rate (%) Monochoria vaginalis [%]
1,CCC(C)CCn1oc(=O)c(Cc2ccccc2N(S(=O)(=O)C(F)(F)F)S(=O)(=O)C(F)(F)F)c1C (centres unmarked) [Compound 1-978],80
2,COCCOC(=O)N(c1ccccc1Cc1c(C)n(CCSC)oc1=O)S(=O)(=O)C(F)(F)F [Compound 1-735],90

# Test system: Scirpus juncoides
# Assay: as above
# Assay type: in vivo
# Conditions: 120 g/10a active ingredient, dry weight vs untreated area, 14 days after treatment
# In short: as §1
row,SMILES,Herbicidal rate (%) Scirpus juncoides [%]
1,CCC(C)CCn1oc(=O)c(Cc2ccccc2N(S(=O)(=O)C(F)(F)F)S(=O)(=O)C(F)(F)F)c1C (centres unmarked) [Compound 1-978],90
2,COCCOC(=O)N(c1ccccc1Cc1c(C)n(CCSC)oc1=O)S(=O)(=O)C(F)(F)F [Compound 1-735],90

# Test system: southern crabgrass
# Assay: Test Example 3: herbicidal effect test by treatment of dry field farming soil (one day after seeding)
# Assay type: in vivo
# Conditions: 120 g/10a active ingredient, evaluated 14 days after treatment
# In short: (§2)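 Pre-emergence soil treatment: alluvial dry-field soil, 20 seeds per species mixed into top 1 cm, emulsion diluted in water sprayed one day after seeding at 100 L per 10 ares (120 g active ingredient per 10 ares). Duplicate pots; herbicidal rate (%) from dry weight vs untreated at 14 days.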
row,SMILES,"herbicidal rate, southern crabgrass [%]"
1,CCC(C)CCn1oc(=O)c(Cc2ccccc2N(S(=O)(=O)C(F)(F)F)S(=O)(=O)C(F)(F)F)c1C (centres unmarked) [Compound 1-978],90
2,COCCOC(=O)N(c1ccccc1Cc1c(C)n(CCSC)oc1=O)S(=O)(=O)C(F)(F)F [Compound 1-735],90

# Test system: Echinochloa crus-galli
# Assay: as above
# Assay type: in vivo
# Conditions: 120 g/10a active ingredient, evaluated 14 days after treatment
# In short: as §2
row,SMILES,"herbicidal rate, Echinochloa crus-galli [%]"
1,CCC(C)CCn1oc(=O)c(Cc2ccccc2N(S(=O)(=O)C(F)(F)F)S(=O)(=O)C(F)(F)F)c1C (centres unmarked) [Compound 1-978],80
2,COCCOC(=O)N(c1ccccc1Cc1c(C)n(CCSC)oc1=O)S(=O)(=O)C(F)(F)F [Compound 1-735],90

# Test system: Chenopodium album
# Assay: as above
# Assay type: in vivo
# Conditions: 120 g/10a active ingredient, evaluated 14 days after treatment
# In short: as §2
row,SMILES,"herbicidal rate, Chenopodium album [%]"
1,CCC(C)CCn1oc(=O)c(Cc2ccccc2N(S(=O)(=O)C(F)(F)F)S(=O)(=O)C(F)(F)F)c1C (centres unmarked) [Compound 1-978],90
2,COCCOC(=O)N(c1ccccc1Cc1c(C)n(CCSC)oc1=O)S(=O)(=O)C(F)(F)F [Compound 1-735],90

# Test system: Amaranthus viridis
# Assay: as above
# Assay type: in vivo
# Conditions: 120 g/10a active ingredient, evaluated 14 days after treatment
# In short: as §2
row,SMILES,"herbicidal rate, Amaranthus viridis [%]"
1,CCC(C)CCn1oc(=O)c(Cc2ccccc2N(S(=O)(=O)C(F)(F)F)S(=O)(=O)C(F)(F)F)c1C (centres unmarked) [Compound 1-978],90
2,COCCOC(=O)N(c1ccccc1Cc1c(C)n(CCSC)oc1=O)S(=O)(=O)C(F)(F)F [Compound 1-735],90

# Test system: southern crabgrass
# Assay: Test Example 4: herbicidal effect test by treatment of leave and stem in dry field farming (seven days after seeding)
# Assay type: in vivo
# Conditions: 120 g/10a active ingredient; emulsion sprayed seven days after seeding; evaluated 14 days after treatment
# In short: (§3)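 Twenty seeds per species were mixed into the top 1 cm of alluvial soil in 36 cm^2 pots; emulsions were sprayed seven days after seeding at 100 L per 10 ares (120 g active ingredient per 10 ares). Herbicidal rate (%) = {1 − treated/untreated mean dry weight} × 100, 14 days after treatment, duplicate.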
row,SMILES,"herbicidal effect (herbicidal rate), southern crabgrass [%]"
1,CCC(C)CCn1oc(=O)c(Cc2ccccc2N(S(=O)(=O)C(F)(F)F)S(=O)(=O)C(F)(F)F)c1C (centres unmarked) [Compound 1-978],50
2,COCCOC(=O)N(c1ccccc1Cc1c(C)n(CCSC)oc1=O)S(=O)(=O)C(F)(F)F [Compound 1-735],90

# Test system: Echinochloa crus-galli
# Assay: as above
# Assay type: in vivo
# Conditions: 120 g/10a active ingredient; emulsion sprayed seven days after seeding; evaluated 14 days after treatment
# In short: as §3
row,SMILES,"herbicidal effect (herbicidal rate), Echinochloa crus-galli [%]"
1,CCC(C)CCn1oc(=O)c(Cc2ccccc2N(S(=O)(=O)C(F)(F)F)S(=O)(=O)C(F)(F)F)c1C (centres unmarked) [Compound 1-978],60
2,COCCOC(=O)N(c1ccccc1Cc1c(C)n(CCSC)oc1=O)S(=O)(=O)C(F)(F)F [Compound 1-735],90

# Test system: Chenopodium album
# Assay: as above
# Assay type: in vivo
# Conditions: 120 g/10a active ingredient; emulsion sprayed seven days after seeding; evaluated 14 days after treatment
# In short: as §3
row,SMILES,"herbicidal effect (herbicidal rate), Chenopodium album [%]"
1,CCC(C)CCn1oc(=O)c(Cc2ccccc2N(S(=O)(=O)C(F)(F)F)S(=O)(=O)C(F)(F)F)c1C (centres unmarked) [Compound 1-978],40
2,COCCOC(=O)N(c1ccccc1Cc1c(C)n(CCSC)oc1=O)S(=O)(=O)C(F)(F)F [Compound 1-735],40

# Test system: Amaranthus viridis
# Assay: as above
# Assay type: in vivo
# Conditions: 120 g/10a active ingredient; emulsion sprayed seven days after seeding; evaluated 14 days after treatment
# In short: as §3
row,SMILES,"herbicidal effect (herbicidal rate), Amaranthus viridis [%]"
1,CCC(C)CCn1oc(=O)c(Cc2ccccc2N(S(=O)(=O)C(F)(F)F)S(=O)(=O)C(F)(F)F)c1C (centres unmarked) [Compound 1-978],40
2,COCCOC(=O)N(c1ccccc1Cc1c(C)n(CCSC)oc1=O)S(=O)(=O)C(F)(F)F [Compound 1-735],40

# Test system: Echinochloa crus-galli
# Assay: Test Example 2: herbicidal effect test by treatment during growing period in paddy rice cultivation (seven days after seeding)
# Assay type: in vivo
# Conditions: 120 g/10a active ingredient, assessed 14 days after treatment, dry weight vs untreated area
# In short: (§4)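 Paddy soil in Wagner pots with compound fertilizer, puddled; 30 seeds per species sown at 0–1 cm, flooded ~3 cm, greenhouse. Seven days after seeding, water-diluted emulsions were dropped into the water at 120 g active ingredient per 10 ares. Duplicate pots; herbicidal rate from dry weight versus untreated, 14 days after treatment.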
row,SMILES,Herbicidal rate (%) Echinochloa crus-galli [%]
1,CCC(C)CCn1oc(=O)c(Cc2ccccc2N(S(=O)(=O)C(F)(F)F)S(=O)(=O)C(F)(F)F)c1C (centres unmarked) [Compound 1-978],100
2,COCCOC(=O)N(c1ccccc1Cc1c(C)n(CCSC)oc1=O)S(=O)(=O)C(F)(F)F [Compound 1-735],90

# Test system: broad leaf weeds (Lindernia pyxidaria and Monochoria vaginalis)
# Assay: as above
# Assay type: in vivo
# Conditions: Lindernia pyxidaria, 120 g/10a active ingredient, assessed 14 days after treatment, dry weight vs untreated area
# In short: as §4
row,SMILES,Herbicidal rate (%) Lindernia pyxidaria [%]
1,CCC(C)CCn1oc(=O)c(Cc2ccccc2N(S(=O)(=O)C(F)(F)F)S(=O)(=O)C(F)(F)F)c1C (centres unmarked) [Compound 1-978],50
2,COCCOC(=O)N(c1ccccc1Cc1c(C)n(CCSC)oc1=O)S(=O)(=O)C(F)(F)F [Compound 1-735],90

# Same assay, conditions: Monochoria vaginalis, 120 g/10a active ingredient, assessed 14 days after treatment, dry weight vs untreated area
row,SMILES,Herbicidal rate (%) Monochoria vaginalis [%]
1,CCC(C)CCn1oc(=O)c(Cc2ccccc2N(S(=O)(=O)C(F)(F)F)S(=O)(=O)C(F)(F)F)c1C (centres unmarked) [Compound 1-978],60
2,COCCOC(=O)N(c1ccccc1Cc1c(C)n(CCSC)oc1=O)S(=O)(=O)C(F)(F)F [Compound 1-735],90

# Test system: Scirpus juncoides
# Assay: as above
# Assay type: in vivo
# Conditions: 120 g/10a active ingredient, assessed 14 days after treatment, dry weight vs untreated area
# In short: as §4
row,SMILES,Herbicidal rate (%) Scirpus juncoides [%]
1,CCC(C)CCn1oc(=O)c(Cc2ccccc2N(S(=O)(=O)C(F)(F)F)S(=O)(=O)C(F)(F)F)c1C (centres unmarked) [Compound 1-978],60
2,COCCOC(=O)N(c1ccccc1Cc1c(C)n(CCSC)oc1=O)S(=O)(=O)C(F)(F)F [Compound 1-735],90
